Measured values reported in the NIST ThermoML archive (doi:10.1016/j.jct.2008.05.014).
Numbers after ± are expanded uncertainties.

Experiments:
[1] = Liquid; for speed of sound: Pulse-echo method
[2] = refractive index (Na D-line) (dimensionless); conditions: 298.15 K; 101.33 kPa; Liquid; Standard Abbe refractometry
[3] = xn = mol fraction of the nth substance listed; conditions: Liquid, x1 = 1; for speed of sound: Pulse-echo method

CCCCCCCCCCCC [dodecane]
[1]
Conditions | mass density [kg/m3] | speed of sound [m/s]
292.87 K, 15200 kPa | – | 1384.9 ± 2.4
292.87 K, 30390 kPa | – | 1457.9 ± 2.4
292.87 K, 45590 kPa | – | 1524.1 ± 2.4
292.87 K, 60790 kPa | – | 1584.5 ± 2.5
292.87 K, 75990 kPa | – | 1640.7 ± 2.5
292.87 K, 91180 kPa | – | 1692.8 ± 2.5
292.87 K, 101320 kPa | – | 1725.8 ± 2.6
292.89 K, 101 kPa | – | 1299.5 ± 1.6
293.15 K, 101 kPa | 748.921 ± 0.63 | –
298.15 K, 101 kPa | 745.269 ± 0.63 | –
298.16 K, 101 kPa | – | 1278.9 ± 1.6
298.16 K, 15200 kPa | – | 1365.9 ± 2.4
298.16 K, 30390 kPa | – | 1440 ± 2.4
298.16 K, 45580 kPa | – | 1507 ± 2.4
298.16 K, 60790 kPa | – | 1568 ± 2.5
298.16 K, 75990 kPa | – | 1625.2 ± 2.5
298.16 K, 91180 kPa | – | 1677.7 ± 2.5
298.16 K, 101320 kPa | – | 1711.1 ± 2.6
303.14 K, 30390 kPa | – | 1423.8 ± 2.4
303.14 K, 45590 kPa | – | 1491.4 ± 2.4
303.14 K, 60790 kPa | – | 1553.1 ± 2.5
303.14 K, 75990 kPa | – | 1610.9 ± 2.5
303.14 K, 91180 kPa | – | 1664.1 ± 2.5
303.14 K, 101320 kPa | – | 1697.4 ± 2.6
303.15 K, 101 kPa | 741.636 ± 0.64 | 1259.3 ± 1.6
303.15 K, 15200 kPa | – | 1348.5 ± 2.4
308.12 K, 101 kPa | – | 1240.2 ± 1.6
308.13 K, 75990 kPa | – | 1596.8 ± 2.5
308.13 K, 91180 kPa | – | 1650.9 ± 2.6
308.14 K, 15200 kPa | – | 1331 ± 2.4
308.14 K, 30390 kPa | – | 1407.6 ± 2.4
308.14 K, 45590 kPa | – | 1476.3 ± 2.4
308.14 K, 60790 kPa | – | 1538.6 ± 2.5
308.15 K, 101 kPa | 738.031 ± 0.64 | –
313.1 K, 101 kPa | – | 1221 ± 1.6
313.15 K, 101 kPa | 734.369 ± 0.65 | –
313.21 K, 15200 kPa | – | 1313.4 ± 2.4
313.21 K, 30390 kPa | – | 1391.1 ± 2.4
313.21 K, 45590 kPa | – | 1460.8 ± 2.4
313.21 K, 60790 kPa | – | 1524.1 ± 2.5
313.21 K, 75990 kPa | – | 1582.5 ± 2.5
313.21 K, 91180 kPa | – | 1637.3 ± 2.5
313.21 K, 101320 kPa | – | 1671.3 ± 2.6
318.15 K, 101 kPa | 730.715 ± 0.65 | –
318.29 K, 15200 kPa | – | 1296.2 ± 2.4
318.29 K, 30390 kPa | – | 1375 ± 2.4
318.29 K, 45590 kPa | – | 1445.5 ± 2.4
318.29 K, 60790 kPa | – | 1509.7 ± 2.5
318.29 K, 91180 kPa | – | 1624.1 ± 2.6
318.29 K, 101320 kPa | – | 1658.5 ± 2.6
318.3 K, 75990 kPa | – | 1568.8 ± 2.5
318.39 K, 101 kPa | – | 1200.9 ± 1.6

Conditions | refractive index
[2] | 1.4197 ± 0.0008

CCCCCCC [heptane]
[1]
Conditions | mass density [kg/m3] | speed of sound [m/s]
292.83 K, 101 kPa | – | 1153.2 ± 1.6
292.88 K, 45590 kPa | – | 1417.7 ± 2.4
292.88 K, 60790 kPa | – | 1485.5 ± 2.5
292.88 K, 75990 kPa | – | 1547.2 ± 2.5
292.88 K, 91180 kPa | – | 1605 ± 2.6
292.88 K, 101320 kPa | – | 1641.2 ± 2.6
292.89 K, 15200 kPa | – | 1257 ± 2.4
292.89 K, 30390 kPa | – | 1342.4 ± 2.4
293.15 K, 101 kPa | 683.803 ± 0.71 | –
298.12 K, 101 kPa | – | 1130.1 ± 1.6
298.15 K, 101 kPa | 679.548 ± 0.72 | –
298.15 K, 15200 kPa | – | 1236.7 ± 2.4
298.15 K, 30390 kPa | – | 1323.7 ± 2.4
298.15 K, 45590 kPa | – | 1400.1 ± 2.4
298.15 K, 60790 kPa | – | 1469.1 ± 2.5
298.15 K, 91180 kPa | – | 1589.7 ± 2.6
298.15 K, 101320 kPa | – | 1626.4 ± 2.6
298.16 K, 75990 kPa | – | 1531.6 ± 2.5
303.1 K, 101 kPa | – | 1108.5 ± 1.6
303.13 K, 60790 kPa | – | 1453.5 ± 2.5
303.13 K, 91180 kPa | – | 1575.6 ± 2.6
303.13 K, 101320 kPa | – | 1612.6 ± 2.6
303.14 K, 30390 kPa | – | 1306.4 ± 2.4
303.14 K, 45590 kPa | – | 1383.7 ± 2.4
303.14 K, 75990 kPa | – | 1517 ± 2.5
303.15 K, 101 kPa | 675.293 ± 0.72 | –
303.15 K, 15200 kPa | – | 1217.8 ± 2.4
308.08 K, 101 kPa | – | 1087 ± 1.6
308.12 K, 45590 kPa | – | 1367.9 ± 2.4
308.12 K, 75990 kPa | – | 1502.7 ± 2.5
308.12 K, 91180 kPa | – | 1561.5 ± 2.6
308.12 K, 101320 kPa | – | 1599.1 ± 2.6
308.13 K, 15200 kPa | – | 1199.2 ± 2.4
308.13 K, 30390 kPa | – | 1289.3 ± 2.4
308.13 K, 60790 kPa | – | 1438.4 ± 2.5
308.15 K, 101 kPa | 671.015 ± 0.73 | –
313.06 K, 101 kPa | – | 1065.6 ± 1.6
313.1 K, 30390 kPa | – | 1272.5 ± 2.4
313.1 K, 45590 kPa | – | 1352.5 ± 2.4
313.1 K, 60790 kPa | – | 1423.8 ± 2.5
313.1 K, 75990 kPa | – | 1488.7 ± 2.5
313.1 K, 91180 kPa | – | 1548.1 ± 2.6
313.1 K, 101320 kPa | – | 1585.7 ± 2.6
313.11 K, 15200 kPa | – | 1180.7 ± 2.4
313.15 K, 101 kPa | 666.684 ± 0.73 | –
318.15 K, 101 kPa | 662.324 ± 0.74 | –
318.28 K, 15200 kPa | – | 1161.8 ± 2.4
318.28 K, 30390 kPa | – | 1255.3 ± 2.4
318.28 K, 45590 kPa | – | 1336.5 ± 2.5
318.28 K, 60790 kPa | – | 1408.6 ± 2.5
318.28 K, 75990 kPa | – | 1474.4 ± 2.5
318.28 K, 91180 kPa | – | 1534.3 ± 2.6
318.28 K, 101320 kPa | – | 1572.3 ± 2.6
318.35 K, 101 kPa | – | 1043 ± 1.6

Conditions | refractive index
[2] | 1.3853 ± 0.0008

CCCCCCC [heptane] + CCCCCCCCCCCC
[3]
Conditions | mass density [kg/m3] | speed of sound [m/s]
292.83 K, 101 kPa | – | 1153.2 ± 1.6
292.88 K, 45590 kPa | – | 1417.7 ± 2.4
292.88 K, 60790 kPa | – | 1485.5 ± 2.5
292.88 K, 75990 kPa | – | 1547.2 ± 2.5
292.88 K, 91180 kPa | – | 1605 ± 2.6
292.88 K, 101320 kPa | – | 1641.2 ± 2.6
292.89 K, 15200 kPa | – | 1257 ± 2.4
292.89 K, 30390 kPa | – | 1342.4 ± 2.4
293.15 K, 101 kPa | 683.803 ± 0.71 | –
298.12 K, 101 kPa | – | 1130.1 ± 1.6
298.15 K, 101 kPa | 679.548 ± 0.72 | –
298.15 K, 15200 kPa | – | 1236.7 ± 2.4
298.15 K, 30390 kPa | – | 1323.7 ± 2.4
298.15 K, 45590 kPa | – | 1400.1 ± 2.4
298.15 K, 60790 kPa | – | 1469.1 ± 2.5
298.15 K, 91180 kPa | – | 1589.7 ± 2.6
298.15 K, 101320 kPa | – | 1626.4 ± 2.6
298.16 K, 75990 kPa | – | 1531.6 ± 2.5
303.1 K, 101 kPa | – | 1108.5 ± 1.6
303.13 K, 60790 kPa | – | 1453.5 ± 2.5
303.13 K, 91180 kPa | – | 1575.6 ± 2.6
303.13 K, 101320 kPa | – | 1612.6 ± 2.6
303.14 K, 30390 kPa | – | 1306.4 ± 2.4
303.14 K, 45590 kPa | – | 1383.7 ± 2.4
303.14 K, 75990 kPa | – | 1517 ± 2.5
303.15 K, 101 kPa | 675.293 ± 0.72 | –
303.15 K, 15200 kPa | – | 1217.8 ± 2.4
308.08 K, 101 kPa | – | 1087 ± 1.6
308.12 K, 45590 kPa | – | 1367.9 ± 2.4
308.12 K, 75990 kPa | – | 1502.7 ± 2.5
308.12 K, 91180 kPa | – | 1561.5 ± 2.6
308.12 K, 101320 kPa | – | 1599.1 ± 2.6
308.13 K, 15200 kPa | – | 1199.2 ± 2.4
308.13 K, 30390 kPa | – | 1289.3 ± 2.4
308.13 K, 60790 kPa | – | 1438.4 ± 2.5
308.15 K, 101 kPa | 671.015 ± 0.73 | –
313.06 K, 101 kPa | – | 1065.6 ± 1.6
313.1 K, 30390 kPa | – | 1272.5 ± 2.4
313.1 K, 45590 kPa | – | 1352.5 ± 2.4
313.1 K, 60790 kPa | – | 1423.8 ± 2.5
313.1 K, 75990 kPa | – | 1488.7 ± 2.5
313.1 K, 91180 kPa | – | 1548.1 ± 2.6
313.1 K, 101320 kPa | – | 1585.7 ± 2.6
313.11 K, 15200 kPa | – | 1180.7 ± 2.4
313.15 K, 101 kPa | 666.684 ± 0.73 | –
318.15 K, 101 kPa | 662.324 ± 0.74 | –
318.28 K, 15200 kPa | – | 1161.8 ± 2.4
318.28 K, 30390 kPa | – | 1255.3 ± 2.4
318.28 K, 45590 kPa | – | 1336.5 ± 2.5
318.28 K, 60790 kPa | – | 1408.6 ± 2.5
318.28 K, 75990 kPa | – | 1474.4 ± 2.5
318.28 K, 91180 kPa | – | 1534.3 ± 2.6
318.28 K, 101320 kPa | – | 1572.3 ± 2.6
318.35 K, 101 kPa | – | 1043 ± 1.6
